According to patent US20100196326A1, “METHOD AND SYSTEM FOR BIASING CELLULAR DEVELOPMENT” (priority 2004, published 2010):
“Also recorded” adds a separate entry of the source.

Assays:
Format in all cases: cell-based, human
[1] = system: NT2/D1 cells; experiment: STS-induced astrocytic differentiation, morphology by microscopy; details: 40 nM STS
Description: (§1) The NT2/D1 cells were seeded (5×10^6 cells per 10 cm Petri dish) in Dulbecco's modified Eagle's medium (DMEM/F-12; Invitrogen) supplemented with 10% heat inactivated fetal bovine serum (FBS; Invitrogen), 0.4 μl/ml penicillin-streptomycin (Invitrogen), and 4 mM glutamine (Invitrogen) and maintained in a humidified atmosphere of 5% CO2/95% air at 37° C. For astrocytic differentiation, 1×10^6 cells were seeded in a 6 well plate and treated three times a week for 3 weeks with 40 nM STS (Sigma). Cells were split twice a week by short exposure to trypsin/EDTA (Invitrogen). Subsequently, these NT2/A cells were evaluated for expression of astrocytic markers and […] by RT-PCR and western blot analysis. After incubation with a different time and concentration of STS, cells were trypsinized and viable cells were counted with a hemocytometer using trypan blue exclusive assay.
Typical fluorescent microscopic pictures of the transfected cell were taken 48 hr after the transfection in a 8 well chamber slides. The cells expressing EGFP were detected by green fluorescence.

[2] = system: NT2/D1 cells; experiment: cell viability assay (trypan blue) and DNA fragmentation analysis after STS treatment
Description: as §1

[3] = system: NT2/D1 cells; experiment: RT-PCR of astrocyte specific and APP gene expression in treated NT2 cells
Description: as §1
Total RNA was extracted from the cells and 1 μg of the RNA was reverse-transcribed and amplified using the SuperScript™ ONE STEP™ RT-PCR System (Invitrogen) with the following primers.

## CN[C@@H]1C[C@H]2O[C@@](C)([C@@H]1OC)n1c3ccccc3c3c4c(c5c6ccccc6n2c5c31)C(=O)NC4 [STS, Staurosporine]
[1]
  induction of NT2/A cells (astrocytic morphology): induced NT2/A cells; also recorded: induces morphological and functional differentiation
[2]; 40 nM STS
  start of mass cell death: 8 h
[2]; STS treatment
  cell viability and DNA fragmentation: cell death
[3]; 40 nM STS, RT-PCR
  astrocyte specific gene expression (GFAP, LIF, Delta, Jagged-1, BMP-2, 4, BMP-7, GLT-1/EAAT-2, GLAST/EAAT-1): induced astrocyte specific gene expression
[3]; during STS-induced astro-gliogenesis
  APP gene expression: increased in time-dependent manner; also recorded: higher expression level
